Reference: patent publication US10739304B2, “Organic transistor-based system for electrophysiological monitoring of cells and method for the monitoring of the cells” (UNIVERSITA DEGLI STUDI DI CAGLIARI, priority 2015, dated 2020)

System: rat cardiomyocytes culture
Test: Spontaneous electrical (beating) activity of rat cardiomyocyte culture recorded with the organic transistor (OCMFET) system, pharmacological modulation
Type: cell-based
Conditions: 100 μM; for beating frequency modulation: spike-count on 4 min: rat cardiomyocytes culture (8 DIV) at 37° C., Verapamil added after Norepinephrine, statistics on 5 transistors, average and standard deviation, basal 129±4.6; for chemical tuning of the culture's spontaneous activity (drain current vs time): rat cardiomyocytes culture at 37° C., Norepinephrine first, then Verapamil
From the text: The system 100 was able to detect the occurrence of the signals (similarly to what MEA-based devices do), the beat rate and its rapid changing related to pharmacological modulations, obtained by applying both positive and negative chronotropic compounds (according to the method described in Simpson, P. Stimulation of hypertrophy of cultured neonatal rat heart cells through an alpha 1-adrenergic receptor and induction of beating through an alpha 1- and beta 1-adrenergic receptor interaction. Evidence for independent regulation of growth and beating. Circ. Res. 56, 884-894 (1985); Yonemochi, H., Saikawa, T., Takakura, T., Ito, S., Takaki, R. Effects of calcium antagonist on β-receptors of cultured cardiac myocytes isolated from neonatal rat ventricle. Circulation 81, 1401-1408 (1990)). In FIG. 13 an example of extracellular action potentials measured, with an organic transistor 10 is shown. Considering a p-type organic transistor and a first inverting stage of the readout electronics, the shape of the single signal shown in FIG. 13 is consistent with the expected current fluctuation caused by the ionic charge displacement in the early phase of the cardiac action potential. The drain current IDS fluctuation is driven by the fast movement of Na+ ions occurring at the very beginning of the intracellular action potential.
Systematic measurements by recording the spontaneous electrophysiological activity of rat cardiomyocytes (8 Days InVitro—DIV) by means of the system 100 (FIG. 14) have been performed.
All the measurements relative to the pharmacological modulation of the electrical activity were performed while maintaining the culture at constant temperature (37° C.) and the same reliable results were obtained in five recording devices simultaneously.

| SMILES | beating frequency modulation: spike-count on 4 min | chemical tuning of the culture's spontaneous activity (drain current vs time) |
| --- | --- | --- |
| NC[C@H](O)c1ccc(O)c(O)c1 [Norepinephrine] | 280±28.6 | accelerated |
| COc1ccc(CCN(C)CCCC(C#N)(c2ccc(OC)c(OC)c2)C(C)C)cc1OC (stereo not shown) [Verapamil] | 15±1.9 | suppressed |
